The source of these data is patent publication US20080280983A1, “METHODS OF TREATING RETT SYNDROME” (CeNeRx BioPharma, priority 2007, published 2008).

For series [1], the system named is pentetrazol-induced convulsions. The series can be described thus: Pentetrazol-induced convulsions in rats. Format: in vivo, rat. The note with it: for animals manifesting convulsions: 30 minutes before pentetrazol 80 mg/kg i.p. On the procedure: The method proposed by Goodman L. S. et al. (J. Pharmacol. Test Ther. 108:168; 1958) was used. […] After 30 minutes, pentylene tetrazol (80 mg/kg i.p.) was administered. The number of animals from each group who manifested at least one convulsion during the 30 minutes after injection was counted. The differences between treatments were statistically analyzed using the chi-square/Fisher exact test.

Series [2] has as its system bicucullin-induced convulsions. The series can be described thus: Bicucullin-induced convulsions in rats. Format: in vivo, rat. To be noted: for protection against convulsions: percent compared with controls; for animals showing convulsions: 1 hour before bicuculline 4.5 mg/kg i.p., FIG. 4. On the procedure: The method described by Curtis D. R. et al. (Brain Res. 34:301; 1971), herein incorporated by reference in its entirety, was used in modified form.
One hour later, bicuculline was administered by intraperitoneal route at a dose of 4.5 mg/kg dissolved in 10 ml/kg NSS. The number of animals manifesting any type of convulsion was then counted. The protection conferred by the treatments was then calculated as percent compared with the controls. The statistical significance of the differences was analyzed using the Yates chi-square test.

Series [3] has as its system electroshock-induced convulsions. The series can be described thus: Electroshock-induced convulsions in rats. Type of series: in vivo, rat. The note with it: 30 minutes before shock. On the procedure: Male rats were studied using the method described by E. Chojnacka-Wojcik (Pol. J. Pharmacol. Pharm., 35:511-15, 1983), herein incorporated by reference in its entirety.
At 30 minutes after dosing, the animals were given a non-lethal electric shock (50 Hz, 50 mA, impulse train duration 0.2 s via corneal electrodes wetted in normal saline). […] The frequency of tonic and clonic convulsions among the treatment groups was analyzed using the Yates chi-square test .

For series [4], the system named is strychnine-induced mortality. To be noted: for type of antagonism of strychnine from slope of dose/mortality line: 100 mg/Kg i.p. pretreatment. On the procedure:
Strychnine causes muscular convulsions and eventual death through asphyxia or sheer exhaustion in mammals.
Strychnine was administered i.p., dissolved in normal saline at a constant volume of 10 ml/kg. […] The number of deaths was recorded, starting 15 minutes after administration. Using data on deaths at each dose, the LD50, the 95% confidence intervals, and the line slope S were calculated.

Another series relates to CRH. Description: CRH concentration in hypothalamus and cerebral cortex, foot-shock stress. Format: in vivo, rat. The source says:
As mentioned above, stress is known to be associated with release of CRH from the hypothalamus and activation of the HPA axis. This is paralleled by changes in the CRH content of different brain regions and alterations in the expression of messenger RNA (mRNA) for CRH.

Series [5] concerns isoniazide-induced convulsions. The series can be described thus: Isoniazide-induced convulsions in rats. Format: in vivo, rat. To be noted: 1 hour prior to isoniazide 100 mg/kg i.p. On the procedure: The method of Reilly R. H. et al. (JAMA 152(14):1317; 1953), herein incorporated by reference in its entirety, was used in modified form. […] Both the ED50 and ED84 were calculated. In the second part of the test, the ED84 was administered at different times (0.5-1.0-1.5-2.0-3.0 hours) prior to isoniazide administration for the purpose of determining the duration of action and the curve of kinetic activity. Female rats fasted for 17 hours were used for the test.

Series [6] concerns rats. The series can be described thus: Open field behavior test. Type of series: in vivo, rat. The source says: The open-field behavior test relies on the observation that rats exposed to a novel open environment display behaviors (exploratory ambulation, rearing, and dropping fecal boluses) that are thought to be naturally defensive and anticipatory of potential threats in the environment. Pharmacologic interventions that attenuate these behaviors may have utility in modifying pathologic fear or stress responses in a clinical context.

In series [7] the test system is rats. Description: Water maze test. Type of series: in vivo, rat. The note with it: 100 mg/Kg. On the procedure:
The water maze test is designed to test the effect of drugs on learning and performance in a task that is performed under a stressful condition. After several trials under control conditions, rats learn to exit the water maze with greater speed and with fewer errors. Performance in this test can be improved by drugs that either reduce stress and/or enhance learning (e.g. muscarinic agonists). On the contrary, drugs that impair learning (e.g. scopolamine) can worsen performance. […] This indicates improved learning and retention.

In another series the test system is mice. Description: Rota-rod test. Format: in vivo, mouse. The note with it: 100 mg/Kg, versus untreated mice, FIG. 8A. From the text:
Motor performance can be tested by measuring the length of time an animal can remain on a slowly rotating cylinder, as in the rota-rod test.

The test system of the next series is aged mice. Description: Taut thread test. Format: in vivo, mouse. On the procedure:
In this test, aged mice are required to traverse a thread stretched between two points. Performance is measured by the time taken to reach the end and the number of resting positions adopted during the test.

Series [8] has as its system mouse. To be noted: intravenous route; cited from earlier work.
Series [9] concerns mouse. The note with it: cited from earlier work.
The subject of a further series is GABA receptors. The note with it: cited from earlier work.
For another series, the system named is CRH mRNA. The note with it: sustained treatment, hypothalamus and cerebral cortex of rats; cited from earlier work.
Another series concerns rat. The note with it: in vivo, ip; cited from earlier work.

The term LD50 denotes the dose expected to kill half of the subjects tested.

Structures are written as SMILES. Like-named read-outs stand apart in the source and are kept apart here.

For `NCCCC(=O)O` [GABA], in series [1] (50 or 100 mg/kg i.p. (either dose), pentetrazol 80 mg/kg i.p.), the anticonvulsant effect entry was “no anticonvulsant effect”. Also, the protection against convulsions stood at 20% in [2] (high dose 200 mg/kg orally) and 10% in series [2] (low dose 100 mg/kg orally).
Consider `CCC1(c2ccccc2)C(=O)NC(=O)NC1=O` [luminal sodium], for which, in series [3] (luminal sodium 10 mg/Kg i.p.), the “tonic and clonic convulsions in response to electric shock” value is reported as “completely blocked”. Besides, in series [1] (10 mg/kg i.p.), the animals manifesting convulsions result was “None”. This compound also gave a protection against convulsions in series [2] (20 mg/kg orally) of 100%.
Regarding `Cc1ccccc1OCC(O)CO` (stereo not drawn) [mephenesine], in series [4] (mice), the “type of antagonism of strychnine from slope of dose/mortality line” value is “competitive antagonism”. Further, the “effect on LD50 of strychnine” value in [4] (mouse, in vivo) is listed as “raised the LD50 of strychnine”.
Consider `CC(C)(C)C(=O)NCCCC(=O)O` [pivagabine, 4-[(2,2-dimethyl-1-oxopropyl)amino]butanoic acid], for which the “effect on CRH concentration in the cerebral cortex” value in the series with CRH (pivagabine alone (no foot shock), cerebral cortex) is “no effect”. For the same compound, the “reduction of CRH concentration in the hypothalamus” value in the series on CRH (pivagabine alone (no foot shock), hypothalamus) is listed as 52%. Besides, the “effects of foot-shock stress on CRH concentration” value in the series on CRH (subchronic treatment, hypothalamus and cerebral cortex, FIGS. 12A and 12B) is “prevented the effects of foot-shock stress”. Also, the “number of tonic convulsions in response to electric shock” value in [3] (100 or 200 mg/Kg i.p., FIG. 1) was “significantly reduced”. Further, in series [4] (100 mg/Kg i.p. 30 minutes prior to strychnine i.p., mice, FIG. 2), the “effect on LD50 of strychnine” value is “raised the LD50 of strychnine”. The “type of antagonism of strychnine from slope of dose/mortality line” value in [4] (mice) is listed as “nonspecific antagonism”. The animals manifesting convulsions in series [1] (100 mg/kg i.p., p<0.01, FIG. 3) was 30%. Besides, the animals showing convulsions in series [2] (100 mg/kg orally) is 4/10; in series [2] (200 mg/kg orally), 1/10. The same compound had a protection against convulsions in series [2] (high dose 200 mg/kg orally) of 90%. The compound also displayed a protection against seizures in [5] (highest dose (oral doses 25-50-100-200 mg/Kg), FIG. 5) of 90%. The “anticonvulsive effect, dose-effect relationship” value in series [5] (oral 25-50-100-200 mg/Kg) is listed as “dose-related increase”. Besides, in the series with rats [6] (50 and 100 mg/Kg i.p., FIG. 6B), the “number of rearing movements” value was “significantly reduced”. The “ambulation, number of sectors explored per unit time” value in the series with rats [6] (FIG. 6A) was “significant decrease”. Also, the “defecation, number of fecal boluses produced” value with rats [6] (FIG. 6C) was “significant decrease”. For the same compound, the “performance in later sessions” value in the series on rats [7] (days 4 and 5) was “tended to be superior to that of controls”. Moreover, the “time to exit and number of errors made” value in the series on rats [7] (rats) is on record as “performed as well as the control group”. For the same compound, the “time remaining on the rotating cylinder” value in the series on mice was “significantly longer”. In addition, the “number of resting positions adopted” value with aged mice (FIG. 9B) was “significantly less”. In the series with aged mice (versus control mice, FIG. 9A), the “time taken to traverse the thread” value was “significantly faster”. Besides, the LD50 with mouse [8] is given as 1750 mg/kg. Moreover, the “anti-depressive and anxiolytic activity” value with mouse [9] was “a certain anti-depressive and anxiolytic activity”. In the series with GABA receptors, the “binding to GABA receptors” value is reported as “does not appear to bind to GABA receptors”. The “abundance of CRH mRNA” value in the series on CRH mRNA is given as “increases the abundance of CRH mRNA”. Besides, in the series on rat, the “dose up to which no toxic effects were observed” value is 1000 mg/kg.
